Experimental data: paper PMC6556873, “Rapid Covalent-Probe Discovery by Electrophile-Fragment Screening” (Journal of the American Chemical Society, 2019)
Where two headings read alike, the source gives them in different places.

Assays:
in vitro [1] = test: in vitro; design: species or system CCD841, HEK293; conditions: human, hb2 cells, read-out: HB-2 Cells Viability (%)
in vitro [2] = test: in vitro; design: species or system HB2, HEK293; conditions: human, ccd841 cells
OTUB2 (OTUB2A) = molecular target: T1, OTUB2 (OTUB2A) (Homo sapiens, UniProt Q96DC9); design: Intact protein LC/MS covalent labelling, fragments in pools of five, 200 uM each, 4 °C; conditions: 24 h, 4 °C, pool of five; 200 µM; covalent
T1 construct: full length residues 1-234, E. coli BL21(DE3)-R3, His tag removed by TEV, construct 27312 Da
T1 sequence (Q96DC9 1-234): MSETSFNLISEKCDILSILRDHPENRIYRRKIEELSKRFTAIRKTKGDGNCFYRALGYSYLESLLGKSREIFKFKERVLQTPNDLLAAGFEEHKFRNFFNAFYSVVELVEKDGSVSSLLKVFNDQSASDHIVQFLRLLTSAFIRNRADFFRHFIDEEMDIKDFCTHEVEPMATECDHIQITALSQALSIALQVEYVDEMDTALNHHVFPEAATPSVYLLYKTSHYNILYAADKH

BSA = molecular target: T2, BSA (Bos taurus, UniProt P02769); design: Intact protein LC/MS covalent labelling, fragments in pools of five, 200 uM each, 4 °C; conditions: 24 h, 4 °C, pool of five; 200 µM; covalent
T2 construct: gene ALB

PCAF = molecular target: T3, PCAF (Homo sapiens, UniProt Q92831); design: Intact protein LC/MS covalent labelling, fragments in pools of five, 200 uM each, 4 °C; conditions: 24 h, 4 °C, pool of five; 200 µM; covalent
T3 construct: gene KAT2B

NUDT7 = molecular target: T4, NUDT7 (Homo sapiens, UniProt P0C024); design: Intact protein LC/MS covalent labelling, fragments in pools of five, 200 uM each, 4 °C; conditions: 24 h, 4 °C, pool of five; 200 µM; covalent
T4 construct: residues 14-235, E. coli, pNIC28-Bsa4, N-terminal His6 tag removed by TEV, construct 26672 Da

in vitro [3] = test: in vitro; design: species or system HB2, CCD841; conditions: human, hek293 cells

T4 sequence (P0C024 14-235): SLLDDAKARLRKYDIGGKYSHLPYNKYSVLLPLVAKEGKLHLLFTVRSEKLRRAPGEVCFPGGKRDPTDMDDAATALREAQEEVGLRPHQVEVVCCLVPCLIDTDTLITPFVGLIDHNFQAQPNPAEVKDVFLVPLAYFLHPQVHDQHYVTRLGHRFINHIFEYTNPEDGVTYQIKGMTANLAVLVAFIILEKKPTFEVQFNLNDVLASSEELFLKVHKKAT
T3 sequence (Q92831 whole entry, the tested form may be a part): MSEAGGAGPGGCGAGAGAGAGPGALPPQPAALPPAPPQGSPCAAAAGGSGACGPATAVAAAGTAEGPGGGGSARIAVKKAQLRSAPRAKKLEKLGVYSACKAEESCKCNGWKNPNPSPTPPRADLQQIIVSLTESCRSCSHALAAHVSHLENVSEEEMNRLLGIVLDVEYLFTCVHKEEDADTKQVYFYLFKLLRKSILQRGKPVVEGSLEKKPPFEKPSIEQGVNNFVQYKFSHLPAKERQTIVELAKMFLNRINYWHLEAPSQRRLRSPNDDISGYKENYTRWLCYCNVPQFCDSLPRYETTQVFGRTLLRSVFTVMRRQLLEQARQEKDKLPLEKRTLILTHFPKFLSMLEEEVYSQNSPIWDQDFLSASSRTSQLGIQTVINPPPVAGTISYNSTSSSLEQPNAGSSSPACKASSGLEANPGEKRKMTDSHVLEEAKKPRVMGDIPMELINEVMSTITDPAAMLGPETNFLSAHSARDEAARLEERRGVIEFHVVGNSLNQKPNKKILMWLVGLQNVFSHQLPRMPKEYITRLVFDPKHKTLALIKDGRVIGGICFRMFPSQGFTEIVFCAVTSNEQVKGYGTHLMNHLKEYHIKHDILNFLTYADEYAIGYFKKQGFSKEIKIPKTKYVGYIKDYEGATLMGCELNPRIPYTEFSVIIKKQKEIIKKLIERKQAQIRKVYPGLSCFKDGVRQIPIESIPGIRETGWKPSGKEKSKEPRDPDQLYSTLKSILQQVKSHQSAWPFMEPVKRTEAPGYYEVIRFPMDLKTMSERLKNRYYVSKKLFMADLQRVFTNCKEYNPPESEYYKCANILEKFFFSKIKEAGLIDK
T2 sequence (P02769 whole entry, the tested form may be a part): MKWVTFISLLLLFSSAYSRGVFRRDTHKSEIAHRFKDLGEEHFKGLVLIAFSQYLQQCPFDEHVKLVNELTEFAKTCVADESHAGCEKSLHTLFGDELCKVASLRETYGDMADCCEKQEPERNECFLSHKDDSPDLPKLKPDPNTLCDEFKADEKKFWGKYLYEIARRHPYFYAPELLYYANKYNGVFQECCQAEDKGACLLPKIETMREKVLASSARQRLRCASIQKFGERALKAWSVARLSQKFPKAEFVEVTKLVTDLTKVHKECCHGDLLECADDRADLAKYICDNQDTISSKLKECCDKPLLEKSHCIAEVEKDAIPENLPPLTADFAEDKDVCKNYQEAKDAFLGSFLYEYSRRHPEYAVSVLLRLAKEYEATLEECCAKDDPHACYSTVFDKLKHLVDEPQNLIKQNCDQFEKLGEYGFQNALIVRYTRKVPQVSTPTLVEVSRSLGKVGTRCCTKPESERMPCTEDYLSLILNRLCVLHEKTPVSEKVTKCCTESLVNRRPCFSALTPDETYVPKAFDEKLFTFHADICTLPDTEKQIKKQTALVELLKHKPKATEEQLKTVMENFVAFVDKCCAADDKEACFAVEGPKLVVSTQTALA

SMILES	viability at 48 h, 10 µM (in vitro [1]) [%]	viability at 48 h, 10 µM (in vitro [2]) [%]	OTUB2 (OTUB2 (OTUB2A))	BSA (BSA)	PCAF (PCAF)	NUDT7 (NUDT7)	viability at 48 h, 10 µM (in vitro [3]) [%]
O=C(CCl)Nc1ccc([N+](=O)[O-])cc1Br [PCM-0102848]	54.1	68.4	0	0	0	0.24	47
O=C(CCl)N1CCSc2ccccc21 [PCM-0102415]	30.2	60.6	0.16	0	0	0.1	22.4
O=C(CCl)N1CCN(S(=O)(=O)c2ccc(Cl)s2)CC1 [PCM-0102121]	1.7	20.6	0	0	0	0.15	2
CC(NC(=O)CCl)C1CC2CCC1C2 (centres unmarked) [PCM-0102572]	92	91.1	0	0	0	0	80.7
C=CC(=O)N1CCN(C(=O)OCC(C)C)CC1 [PCM-0102449]	103	80.1	0	0	0	0	76.6
Cc1ccsc1CN(C)C(=O)CCl [PCM-0102785]	22.2	56.7	0	0	0	0.2	36
C=CC(=O)N1CCC(C(=O)c2ccc3c(c2)NC(=O)C(C)O3)CC1 (centres unmarked) [PCM-0102524]	103	99.7	0	0	0	0	80.6
COC(=O)c1ccc(NC(=O)CCl)cc1 [PCM-0102204]	22.5	56.2	0	0	0	0	3.8
Cc1c(C#N)c(NC(=O)CCl)n(-c2ccccc2)c1C [PCM-0102261]	42.5	75.1	0.09	0	0	0.3	7.8
O=C(CCl)N(C1=CCCCC1)C1CC1 [PCM-0102745]	96.2	88.3	0	0	0	0	98.7
CN(C)C(=O)c1ccc(NC(=O)CCl)cc1 [PCM-0102877]	67.6	61.7	0	0	0	0	30.5
Cc1nc(-c2cccc(NC(=O)CCl)c2)cs1 [PCM-0102262]	5.4	29.7	0.63	0	0	0	1.7
O=C1CN(C(=O)CCl)c2ccccc2N1 [PCM-0102362]	79.8	92.6	0	0	0	0	61.4
O=C(CCl)NCC12CC3CC(CC(C3)C1)C2 [PCM-0102706]	61.3	76.1	0.65	0	0	0	40.8
CN(C(=O)CCl)c1nccs1 [PCM-0102975]	99.8	118	0	0	0	0	97
CC(NC(=O)CCl)c1ccccc1Br (centres unmarked) [PCM-0102256]	39	67.3	0.29	0	0	0.19	27.3

SMILES	viability at 48 h, 10 µM (in vitro [1]) [%]	viability at 48 h, 10 µM (in vitro [2]) [%]	OTUB2 (OTUB2 (OTUB2A))	BSA (BSA)	PCAF (PCAF)	NUDT7 (NUDT7)	viability at 48 h, 10 µM (in vitro [3]) [%]
O=C(CCl)N1CCN(S(=O)(=O)c2ccc3ccccc3c2)CC1 [PCM-0102836]	11.7	67.7	0	0	0	0	46.3
O=C(CCl)NCC(=O)N1CCCC1 [PCM-0102391]	106	101	0	0	0	0	116
C=CC(=O)Nc1cccc(F)c1C [PCM-0102413]	100	86	0	0	0	0	86.8
CC(C)c1cc(NC(=O)CCl)on1 [PCM-0102132]	70.9	69.9	0	0	0	0	70.6
O=C(CCl)NC1CS(=O)(=O)CC1Cl (centres unmarked) [PCM-0102291]	99.6	76.3	0	0	0	0.12	91.6
O=C(CCl)N1CCN(C(=O)c2cccs2)CC1 [PCM-0102306]	39.9	63.6	0	0	0	0	12.9
COC(=O)c1cccc(NC(=O)CCl)n1 [PCM-0102977]	103	101	0	0	0	0	105
CN(Cc1ccccc1Br)C(=O)CCl [PCM-0102592]	27.4	71.9	0.12	0	0	0.14	39
C=CC(=O)N1CCCN(S(=O)(=O)c2cccc3cnccc23)CC1 [PCM-0102491]	99.3	100	0	0	0	0	99.9
C=CC(=O)N1CCC(C#N)(c2ccccn2)CC1 [PCM-0102960]	102	110	0.06	0	0	0	104
CNC(=O)CNC(=O)CCl [PCM-0102279]	108	97.3	0.1	0.09	0	0	112
CC1(c2ccccc2)NC(=O)N(NC(=O)CCl)C1=O (centres unmarked) [PCM-0102428]	91.2	81.4	0	0	0	0	103
CS(=O)(=O)N1CCN(C(=O)CCl)CC1 [PCM-0102417]	89.4	78.8	0	0	0	0	70.1
Cc1ccc(NC(=O)CCl)cc1I [PCM-0102577]	4.6	17.9	0.8	0	0	0.34	2.4
C=CC(=O)Nc1cccc(Cl)c1 [PCM-0102961]	97.3	103	0	0	0	0	80.4
C=CC(=O)N1CCC(S(=O)(=O)C(C)C)CC1 [PCM-0102637]	98.6	119	0	0	0	0	102
